Assay results taken from publication PMC3446931, “Cyclohexyl Ketone Inhibitors of Pin1 Dock in a Trans-Diaxial Cyclohexane Conformation” (PLoS ONE, 2012).

Target: Pin1 (Homo sapiens, UniProt Q13526)
Assay: alpha-chymotrypsin protease-coupled PPIase assay
Assay type: biochemical

Pin1, sequence (Q13526 whole entry): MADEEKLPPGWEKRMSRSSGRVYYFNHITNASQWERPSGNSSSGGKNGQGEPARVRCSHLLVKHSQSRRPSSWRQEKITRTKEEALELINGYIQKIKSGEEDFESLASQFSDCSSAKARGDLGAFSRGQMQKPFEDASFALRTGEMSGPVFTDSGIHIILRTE

IC50 [µM] | SMILES
61 ± 8 | CC(=O)NC(COP(=O)(O)O)C(=O)C1CCCCC1C(=O)NCCc1c[nH]c2ccccc12 (racemic) [rac-2]
260 ± 30 | CC(=O)N[C@@H](COP(=O)(O)O)C(=O)[C@@H]1CCCC[C@H]1C(=O)NCCc1c[nH]c2ccccc12 [compound 1, 1]
